In ChEMBL document CHEMBL1147319, “Spectroscopic and biological investigation of nimbolide and 28-deoxonimbolide from Azadirachta indica” (1989):
In brackets after ≈: the same amount, converted by molar mass.

How the values were obtained:
Assay type in all cases: functional
Col2 = assay: Cytotoxicity against human Col2 cells after 72 hrs; conditions: Col2, 72 h, read-out: ED50 (the source's name)
SK-MEL-2 = assay: Cytotoxicity against human SK-MEL-2 cells after 72 hrs; conditions: SK-MEL-2, 72 h, read-out: ED50 (the source's name)
HT-1080 = assay: Cytotoxicity against human HT1080 cells after 48 hrs; conditions: HT-1080, 48 h, read-out: ED50 (the source's name)
KB = assay: Cytotoxicity against human KB cells after 72 hrs; conditions: read-out: ED50 (the source's name)
Lu1 = assay: Cytotoxicity against human Lu1 cells; conditions: read-out: ED50 (the source's name)
[1] = Cytotoxicity against human BC1 cells after 72 hrs; conditions: BC1, 72 h, read-out: ED50 (the source's name)
P388 = assay: Cytotoxicity against mouse P388 cells after 48 hrs; conditions: P388, 48 h, read-out: ED50 (the source's name)

| Structure (SMILES) | EC50 (Col2) | EC50 (SK-MEL-2) | EC50 (HT-1080) | EC50 (KB) | EC50 (Lu1) | EC50 [1] | EC50 (P388) |
| --- | --- | --- | --- | --- | --- | --- | --- |
| COC(=O)C[C@H]1[C@]2(C)C3=C(C)[C@H](c4ccoc4)C[C@H]3O[C@@H]2[C@@H]2OC(=O)[C@]3(C)C=CC(=O)[C@@]1(C)[C@@H]23 [NIMBOLIDE] | 0.41 µg/mL (≈ 0.879 µM) | 0.53 µg/mL (≈ 1.14 µM) | 0.31 µg/mL (≈ 0.664 µM) | 0.25 µg/mL (≈ 0.536 µM) | 0.42 µg/mL (≈ 0.9 µM) | 0.39 µg/mL (≈ 0.836 µM) | 0.065 µg/mL (≈ 0.139 µM) |
| COC(=O)C[C@H]1[C@]2(C)C3=C(C)[C@H](c4ccoc4)C[C@H]3O[C@@H]2[C@@H]2OC[C@]3(C)C=CC(=O)[C@@]1(C)[C@@H]23 | 1.81 µg/mL (≈ 4 µM) | 2.05 µg/mL (≈ 4.53 µM) | 1.04 µg/mL (≈ 2.3 µM) | 1.3 µg/mL (≈ 2.87 µM) | 0.84 µg/mL (≈ 1.86 µM) | 1.34 µg/mL (≈ 2.96 µM) | 0.66 µg/mL (≈ 1.46 µM) |
